This assay concerns MV-4-11 cells. As to the kind of experiment: Gene expression microarray analysis (Affymetrix PrimeView) and GSEA. The conditions noted are these: MV-4-11 cells, 48 hours. The format is cell-based, human. The arrangement: RFU PODN (11730768_x_at) / Fold change /veh PODN (11730768_x_at) / RFU LINC00158 (11744669_a_at) / Fold change /veh LINC00158 (11744669_a_at) / RFU DUSP10 (11751237_a_at) / Fold change /veh DUSP10 (11751237_a_at) / RFU ID3 (11757404_x_at) / Fold change /veh ID3 (11757404_x_at) / RFU PLEKHG5 (11737974_s_at) / Fold change /veh PLEKHG5 (11737974_s_at) / RFU LRRC4B (11730491_at) / Fold change /veh LRRC4B (11730491_at) / RFU GIMAP4 (11747438_a_at) / Fold change /veh GIMAP4 (11747438_a_at) / RFU KRT8 (11758183_x_at) / Fold change /veh KRT8 (11758183_x_at) / RFU CNN1 (11734310_a_at) / Fold change /veh CNN1 (11734310_a_at) / RFU VPS37D (11726825_at) / Fold change /veh VPS37D (11726825_at) / RFU C10orf10 (11716522_x_at) / Fold change /veh C10orf10 (11716522_x_at) / RFU KIR2DL2 /// KIR2DL4 /// KIR2DL5A /// KIR2DL5B /// KIR2DS1 /// KIR2DS2 /// KIR2DS3 /// KIR2DS4 /// KIR3DL3 /// KIR3DL3 /// KIR3DS1 (11738374_at) / Fold change /veh KIR2DL2 /// KIR2DL4 /// KIR2DL5A /// KIR2DL5B /// KIR2DS1 /// KIR2DS2 /// KIR2DS3 /// KIR2DS4 /// KIR3DL3 /// KIR3DL3 /// KIR3DS1 (11738374_at) / RFU C1QL1 (11718748_at) / Fold change /veh C1QL1 (11718748_at) / RFU TMPRSS4 (11747572_a_at) / Fold change /veh TMPRSS4 (11747572_a_at) / RFU HAMP (11756126_x_at) / Fold change /veh HAMP (11756126_x_at) / RFU RNFT2 (11725882_a_at) / Fold change /veh RNFT2 (11725882_a_at) / RFU NR4A2 (11747474_a_at) / Fold change /veh NR4A2 (11747474_a_at) / RFU ABCC12 (11746883_a_at) / Fold change /veh ABCC12 (11746883_a_at) / RFU TMEM136 (11760407_x_at) / Fold change /veh TMEM136 (11760407_x_at) / RFU CLDN22 /// WWC2 (11732394_at) / Fold change /veh CLDN22 /// WWC2 (11732394_at) / RFU HLA-DPB1 (11760878_x_at) / Fold change /veh HLA-DPB1 (11760878_x_at) / RFU SPINT1 (11716480_a_at) / Fold change /veh SPINT1 (11716480_a_at) / RFU GAP43 (11754022_s_at) / Fold change /veh GAP43 (11754022_s_at) / RFU A4GNT (11735810_at) / Fold change /veh A4GNT (11735810_at) / RFU PRB3 (11715151_x_at) / Fold change /veh PRB3 (11715151_x_at) / RFU TUBB4B (11761932_at) / Fold change /veh TUBB4B (11761932_at) / RFU CAPN14 (11732068_a_at) / Fold change /veh CAPN14 (11732068_a_at) / RFU TMCC2 (11721928_a_at) / Fold change /veh TMCC2 (11721928_a_at) / RFU IRGQ (11745062_a_at) / Fold change /veh IRGQ (11745062_a_at) / RFU FAM174B (11720279_a_at) / Fold change /veh FAM174B (11720279_a_at) / RFU TMPRSS4 (11748680_a_at) / Fold change /veh TMPRSS4 (11748680_a_at) / RFU FAM212B (11763350_a_at) / Fold change /veh FAM212B (11763350_a_at) / RFU PLEKHG5 (11743358_a_at) / Fold change /veh PLEKHG5 (11743358_a_at) / RFU ZSCAN30 (11745921_a_at) / Fold change /veh ZSCAN30 (11745921_a_at) / RFU CMKLR1 (11741424_a_at) / Fold change /veh CMKLR1 (11741424_a_at) / RFU LOC101060620 /// MAPK8IP1 (11723275_at) / Fold change /veh LOC101060620 /// MAPK8IP1 (11723275_at) / RFU SPTSSB (11747773_x_at) / Fold change /veh SPTSSB (11747773_x_at) / RFU PRSS12 (11739890_at) / Fold change /veh PRSS12 (11739890_at) / RFU BIN1 (11741810_x_at) / Fold change /veh BIN1 (11741810_x_at) / RFU WNT11 (11732464_a_at) / Fold change /veh WNT11 (11732464_a_at) / RFU C10orf10 (11716521_a_at) / Fold change /veh C10orf10 (11716521_a_at) / RFU C5orf56 (11738089_at) / Fold change /veh C5orf56 (11738089_at) / RFU CYB561 (11721691_x_at) / Fold change /veh CYB561 (11721691_x_at) / RFU ANKRD19P (11752326_a_at) / Fold change /veh ANKRD19P (11752326_a_at) / RFU OR2T12 /// OR2T33 /// OR2T8 (11738714_s_at) / Fold change /veh OR2T12 /// OR2T33 /// OR2T8 (11738714_s_at) / RFU VCAN (11748164_a_at) / Fold change /veh VCAN (11748164_a_at) / RFU JSRP1 (11732532_at) / Fold change /veh JSRP1 (11732532_at) / RFU KRTAP10-11 (11738290_x_at) / Fold change /veh KRTAP10-11 (11738290_x_at) / RFU MYO3A (11730013_a_at) / Fold change /veh MYO3A (11730013_a_at) / RFU EBF3 (11725865_a_at) / Fold change /veh EBF3 (11725865_a_at) / RFU CAMK2N1 (11719241_x_at) / Fold change /veh CAMK2N1 (11719241_x_at) / RFU C5orf56 (11738088_a_at) / Fold change /veh C5orf56 (11738088_a_at) / RFU OLFML3 (11715873_a_at) / Fold change /veh OLFML3 (11715873_a_at) / RFU LOC100653217 /// NTM (11731650_a_at) / Fold change /veh LOC100653217 /// NTM (11731650_a_at) / RFU MAPK11 (11762145_a_at) / Fold change /veh MAPK11 (11762145_a_at) / RFU FIZ1 (11724087_x_at) / Fold change /veh FIZ1 (11724087_x_at) / RFU OASL (11726364_x_at) / Fold change /veh OASL (11726364_x_at) / RFU SOX15 (11748057_x_at) / Fold change /veh SOX15 (11748057_x_at) / RFU CD79A (11719716_a_at) / Fold change /veh CD79A (11719716_a_at) / RFU HIST1H1D (11736915_at) / Fold change /veh HIST1H1D (11736915_at) / RFU CASKIN2 (11723855_a_at) / Fold change /veh CASKIN2 (11723855_a_at) / RFU LOC730098 (11760151_x_at) / Fold change /veh LOC730098 (11760151_x_at) / RFU OR4N2 (11742367_at) / Fold change /veh OR4N2 (11742367_at) / RFU PRRT2 (11749266_a_at) / Fold change /veh PRRT2 (11749266_a_at) / RFU SNX32 (11753110_a_at) / Fold change /veh SNX32 (11753110_a_at) / RFU CDHR5 (11726645_a_at) / Fold change /veh CDHR5 (11726645_a_at) / RFU RCAN1 (11760418_a_at) / Fold change /veh RCAN1 (11760418_a_at) / RFU FAM167A (11723789_a_at) / Fold change /veh FAM167A (11723789_a_at) / RFU FAM26E (11764081_at) / Fold change /veh FAM26E (11764081_at) / RFU ISYNA1 (11749810_s_at) / Fold change /veh ISYNA1 (11749810_s_at) / RFU ACY1 (11761880_at) / Fold change /veh ACY1 (11761880_at) / RFU 11764098_at / Fold change /veh 11764098_at / RFU SAMD14 (11745864_x_at) / Fold change /veh SAMD14 (11745864_x_at) / RFU NPB (11741838_a_at) / Fold change /veh NPB (11741838_a_at) / RFU TMPRSS6 (11731388_a_at) / Fold change /veh TMPRSS6 (11731388_a_at) / RFU KRTAP10-2 (11738614_at) / Fold change /veh KRTAP10-2 (11738614_at) / RFU ARHGAP8 /// PRR5-ARHGAP8 (11727945_x_at) / Fold change /veh ARHGAP8 /// PRR5-ARHGAP8 (11727945_x_at) / RFU KRTAP5-7 /// NADSYN1 (11734609_at) / Fold change /veh KRTAP5-7 /// NADSYN1 (11734609_at) / RFU RASL12 (11751679_a_at) / Fold change /veh RASL12 (11751679_a_at) / RFU CDKN2B (11736163_a_at) / Fold change /veh CDKN2B (11736163_a_at) / RFU PRF1 (11729649_at) / Fold change /veh PRF1 (11729649_at) / RFU, ZNF638 /// ZNF638-IT1 / Fold change vs veh, ZNF638 /// ZNF638-IT1 / RFU, PANK3 / Fold change vs veh, PANK3 / RFU, SH3YL1 / Fold change vs veh, SH3YL1 / RFU, ZEB2 / Fold change vs veh, ZEB2 / RFU, NRIP1 / Fold change vs veh, NRIP1 / RFU, PTTG1IP / Fold change vs veh, PTTG1IP / RFU, CAPN2 / Fold change vs veh, CAPN2 / RFU, MED14 / Fold change vs veh, MED14 / RFU, SNORA58 / Fold change vs veh, SNORA58 / RFU, C1orf63 / Fold change vs veh, C1orf63 / RFU, LRRFIP1 / Fold change vs veh, LRRFIP1 / RFU, NDUFAF7 / Fold change vs veh, NDUFAF7 / RFU, SLC12A2 / Fold change vs veh, SLC12A2 / RFU, IBTK / Fold change vs veh, IBTK / RFU, ESF1 / Fold change vs veh, ESF1 / Fold change vs veh, TMEM50B / RFU, TAOK1 / Fold change vs veh, TAOK1 / RFU, ACBD3 / Fold change vs veh, ACBD3 / RFU, TMA16 / Fold change vs veh, TMA16 / RFU, RWDD3 / Fold change vs veh, RWDD3 / RFU, BCAT1 / Fold change vs veh, BCAT1 / RFU, EDEM3 / Fold change vs veh, EDEM3 / RFU, TMEM33 / Fold change vs veh, TMEM33 / RFU, WDR75 / Fold change vs veh, WDR75 / RFU, AHCTF1 / Fold change vs veh, AHCTF1 / RFU, TFRC / Fold change vs veh, TFRC / RFU, ZDHHC17 / Fold change vs veh, ZDHHC17 / RFU, NOM1 / Fold change vs veh, NOM1 / RFU, ARL8B / Fold change vs veh, ARL8B / RFU, ZBTB11 / Fold change vs veh, ZBTB11 / RFU, TAMM41 / Fold change vs veh, TAMM41 / RFU, KIAA1704 /// LOC100996395 / Fold change vs veh, KIAA1704 /// LOC100996395 / RFU, ING1 / Fold change vs veh, ING1 / RFU, TRMT61B / Fold change vs veh, TRMT61B / RFU, FUBP3 / Fold change vs veh, FUBP3 / RFU, TP53 / Fold change vs veh, TP53 / RFU, TNKS2 / Fold change vs veh, TNKS2 / RFU, ZFP14 / Fold change vs veh, ZFP14 / RFU, ACTR2 / Fold change vs veh, ACTR2 / RFU, PPP3R1 / Fold change vs veh, PPP3R1 / RFU, PIK3R1 / Fold change vs veh, PIK3R1 / RFU, HNRNPA1 / Fold change vs veh, HNRNPA1 / RFU, RNF170 / Fold change vs veh, RNF170 / RFU, ZNF28 / Fold change vs veh, ZNF28 / RFU, RNGTT / Fold change vs veh, RNGTT / RFU, OGT / Fold change vs veh, OGT / RFU, BRD1 / Fold change vs veh, BRD1 / RFU, MARS / Fold change vs veh, MARS / RFU, ZNF655 / Fold change vs veh, ZNF655 / RFU, FAHD1 / Fold change vs veh, FAHD1 / RFU, BDP1 / Fold change vs veh, BDP1 / RFU, LRRCC1 / Fold change vs veh, LRRCC1 / RFU, ARID1A / Fold change vs veh, ARID1A / RFU, ZNF146 / Fold change vs veh, ZNF146 / RFU, ZNF330 / Fold change vs veh, ZNF330 / RFU, GPN3 / Fold change vs veh, GPN3 / RFU, C9orf123 / Fold change vs veh, C9orf123 / RFU, N4BP2L2 / Fold change vs veh, N4BP2L2 / RFU, ARFIP1 / Fold change vs veh, ARFIP1 / RFU, FAM179B / Fold change vs veh, FAM179B / RFU, BCL10 / Fold change vs veh, BCL10 / RFU, UHRF1BP1L / Fold change vs veh, UHRF1BP1L / RFU, BET1 / Fold change vs veh, BET1 / RFU, CNOT2 / Fold change vs veh, CNOT2 / RFU, ZNF268 / Fold change vs veh, ZNF268 / Fold change vs veh, ZNF507 / RFU, DGCR2 / Fold change vs veh, DGCR2 / RFU, WDSUB1 / Fold change vs veh, WDSUB1 / Fold change vs veh, HSP90B1 /// MIR3652 / RFU, ADSS / Fold change vs veh, ADSS / RFU, GK / Fold change vs veh, GK / RFU, ZNF148 / Fold change vs veh, ZNF148 / RFU, TAF9 / Fold change vs veh, TAF9 / RFU, SLC1A5 / Fold change vs veh, SLC1A5 / RFU, SLMO2 / Fold change vs veh, SLMO2 / RFU, ABCC4 / Fold change vs veh, ABCC4 / RFU, LOC101060439 /// RAP1B / Fold change vs veh, LOC101060439 /// RAP1B / RFU, RFX7 / Fold change vs veh, RFX7 / RFU, GTPBP10 / Fold change vs veh, GTPBP10 / RFU, CNEP1R1 / Fold change vs veh, CNEP1R1 / RFU, BIVM-ERCC5 /// ERCC5 / Fold change vs veh, BIVM-ERCC5 /// ERCC5 / RFU, ILF3 / Fold change vs veh, ILF3 / RFU 11762660_at / Fold change /veh 11762660_at / RFU VCAN (11757783_s_at) / Fold change /veh VCAN (11757783_s_at) / RFU DDX43 (11728927_at) / Fold change /veh DDX43 (11728927_at) / RFU KRT8 (11758188_x_at) / Fold change /veh KRT8 (11758188_x_at) / RFU NKD1 (11759106_at) / Fold change /veh NKD1 (11759106_at) / RFU SRD5A1 (11742802_a_at) / Fold change /veh SRD5A1 (11742802_a_at) / RFU TPSAB1 /// TPSB2 (11721975_s_at) / Fold change /veh TPSAB1 /// TPSB2 (11721975_s_at) / RFU GSTM3 (11746129_a_at) / Fold change /veh GSTM3 (11746129_a_at) / RFU IL23R (11737362_x_at) / Fold change /veh IL23R (11737362_x_at) / RFU TMEM51 (11727254_a_at) / Fold change /veh TMEM51 (11727254_a_at) / RFU PIWIL2 (11732686_x_at) / Fold change /veh PIWIL2 (11732686_x_at) / RFU ORM1 (11744905_x_at) / Fold change /veh ORM1 (11744905_x_at) / RFU CCDC152 (11743942_at) / Fold change /veh CCDC152 (11743942_at) / RFU ECM1 (11717891_a_at) / Fold change /veh ECM1 (11717891_a_at) / RFU IL23R (11748794_a_at) / Fold change /veh IL23R (11748794_a_at) / RFU TNFAIP8L3 (11732012_x_at) / Fold change /veh TNFAIP8L3 (11732012_x_at) / RFU MBOAT4 (11741988_at) / Fold change /veh MBOAT4 (11741988_at) / RFU 11764193_at / Fold change /veh 11764193_at / RFU TMEM53 (11763286_at) / Fold change /veh TMEM53 (11763286_at) / RFU MAGEB2 (11727129_at) / Fold change /veh MAGEB2 (11727129_at) / RFU TMEM200A (11744735_a_at) / Fold change /veh TMEM200A (11744735_a_at) / RFU CCDC152 (11751479_a_at) / Fold change /veh CCDC152 (11751479_a_at) / RFU FAM211A (11726209_a_at) / Fold change /veh FAM211A (11726209_a_at) / RFU RGS16 (11746705_a_at) / Fold change /veh RGS16 (11746705_a_at) / RFU VCAN (11755009_s_at) / Fold change /veh VCAN (11755009_s_at) / RFU RHOB (11743442_s_at) / Fold change /veh RHOB (11743442_s_at) / RFU RGS16 (11720943_a_at) / Fold change /veh RGS16 (11720943_a_at) / RFU RGS16 (11720944_at) / Fold change /veh RGS16 (11720944_at) / RFU, VPS4B / Fold change vs veh, VPS4B / RFU, CREB1 / Fold change vs veh, CREB1 / RFU, DNAJC13 / Fold change vs veh, DNAJC13 / RFU, GNAQ / Fold change vs veh, GNAQ / RFU, CDK5R1 / Fold change vs veh, CDK5R1 / RFU, ZRANB3 / Fold change vs veh, ZRANB3 / RFU, CUL4A / Fold change vs veh, CUL4A / RFU, CCNY / Fold change vs veh, CCNY / RFU, UFL1 / Fold change vs veh, UFL1 / RFU, COG3 / Fold change vs veh, COG3 / RFU, DIAPH2 / Fold change vs veh, DIAPH2 / RFU, SKA2 / Fold change vs veh, SKA2 / RFU, AFF3 / Fold change vs veh, AFF3 / RFU, LMF1 / Fold change vs veh, LMF1 / RFU, IPO11 / Fold change vs veh, IPO11 / RFU, DFFB / Fold change vs veh, DFFB / RFU, FOXP1 / Fold change vs veh, FOXP1 / RFU, CARD8 / Fold change vs veh, CARD8 / RFU, STRN3 / Fold change vs veh, STRN3 / RFU, ADK / Fold change vs veh, ADK / RFU, RASSF2 / Fold change vs veh, RASSF2 / RFU, WIPF1 / Fold change vs veh, WIPF1 / RFU, LARP1B / Fold change vs veh, LARP1B / RFU, RASA1 / Fold change vs veh, RASA1 / RFU, RB1 / Fold change vs veh, RB1 / RFU, PPFIA1 / Fold change vs veh, PPFIA1 / RFU, MAT2A / Fold change vs veh, MAT2A / RFU, CCT5 / Fold change vs veh, CCT5 / RFU, WDR92 / Fold change vs veh, WDR92 / RFU, CUX1 / Fold change vs veh, CUX1 / RFU, TTC7A / Fold change vs veh, TTC7A / RFU, TMEM135 / Fold change vs veh, TMEM135 / RFU, DEPTOR / Fold change vs veh, DEPTOR / RFU, CPM / Fold change vs veh, CPM / RFU, DNAJB6 / Fold change vs veh, DNAJB6 / RFU, CACNA2D3 / Fold change vs veh, CACNA2D3 / RFU, DTX4 / Fold change vs veh, DTX4 / RFU, TFCP2 / Fold change vs veh, TFCP2 / RFU, GMCL1 /// GMCL1P1 / Fold change vs veh, GMCL1 /// GMCL1P1 / RFU, AEBP2 / Fold change vs veh, AEBP2 / RFU, SNHG1 /// SNORD22 /// SNORD25 /// SNORD26 /// SNORD27 /// SNORD28 /// SNORD29 /// SNORD31 / Fold change vs veh, SNHG1 /// SNORD22 /// SNORD25 /// SNORD26 /// SNORD27 /// SNORD28 /// SNORD29 /// SNORD31 / Fold change (Aza/veh), C12orf56 (ProbeSet 11735607_a_at) / Fold change (ACY-1035/veh), C12orf56 (ProbeSet 11735607_a_at) / Fold change (Aza/veh), FGFR1OP (ProbeSet 11751329_s_at) / Fold change (ACY-1035/veh), FGFR1OP (ProbeSet 11751329_s_at) / Fold change (Aza/veh), VPS36 (ProbeSet 11739960_a_at) / Fold change (ACY-1035/veh), VPS36 (ProbeSet 11739960_a_at) / RFU SYPL1 (11715823_x_at) / Fold change /veh SYPL1 (11715823_x_at) / RFU IGFBP7 (11715501_s_at) / Fold change /veh IGFBP7 (11715501_s_at) / RFU REEP3 (11722064_at) / Fold change /veh REEP3 (11722064_at) / RFU IGLL1 (11728026_x_at) / Fold change /veh IGLL1 (11728026_x_at): dose or concentration left out as unconfirmed.

As to `Nc1ncn([C@@H]2O[C@H](CO)[C@@H](O)[C@H]2O)c(=O)n1` [azacitidine], the “Fold change /veh PIWIL2 (11732686_x_at)” value came to 1.30.
